Source: patent publication US20060160146A1, “Method of screening compound affecting amyloid beta production” (OTSUKA PHARMACEUTICAL CO., LTD., priority 2002, published 2006)

Tests used:
β-secretase = β-secretase cleavage product (sAPPβ) in culture supernatant of COS7 cells transiently expressing mutated APP, Western blotting; assay type: cell-based, monkey; set-up: key to β-cleavage: ↓: indicates a reduced amount of secretase cleavage product; →: indicates an unchanged amount of each secretase cleavage product; ↑: indicates an increased amount of secretase cleavage product; 0: indicates no detection of each secretase cleavage product; conditions: for β-cleavage: amount of sAPPβ versus wild-type APP, 48 hours after transfection
Text: (§1) BE11-hAPP695 was used as a starting material which was produced by adding a BE11 epitope tag immediately after a signal peptide of the N-terminus of a human-type APP gene (FIG. 2) and incorporating it into a vector. With respect to the amino acid at the N-treminus of the α-secretase cleavage site of APP695 (lysine at position 16 of β-amyloid) or the amino acid at the C-terminus (leucine at position 17 of β-amyloid), tryptophan was introduced into position 16 and alanine, glutamic acid, lysine, proline, glutamine, and threonine were introduced into position 17 by the site-directed mutagenesis (QuickChange, Stratagene). A construct was produced in which these mutated APPs and wild-type APPs are respectively incorporated into a pCIneo mammalian expression vector (Promega), and the construct was then transfected to a COS7 cell by a liposome method (DOTAP, Boeringer Manheim), to achieve transient expression. Forty-eight hours after transfection, the cell and culture supernatant were collected, and the expressed proteins and the processing were analyzed by 8% SDS-PAGE/Western blotting. The expression of a cell membrane-associated full-length APP confirmed using the monoclonal antibody (Mab BE11) against BE11. The expression level was standardized, and then α-secretase cleavage products (sAPPα) and β-secretase cleavage products (sAPPβ) which were secreted in the culture supernatant (medium) were detected and quantified using a specific antibody against the respective products.

α-secretase = α-secretase cleavage product (sAPPα) in culture supernatant of COS7 cells transiently expressing mutated APP, Western blotting; assay type: cell-based, monkey; set-up: key to α-cleavage: ↓: indicates a reduced amount of secretase cleavage product; →: indicates an unchanged amount of each secretase cleavage product; ↑: indicates an increased amount of secretase cleavage product; 0: indicates no detection of each secretase cleavage product; conditions: for α-cleavage: amount of sAPPα versus wild-type APP, 48 hours after transfection; for amount of α-secretase cleavage product: in words, versus wild-type APP
Text: as §1

Substance | β-cleavage (β-secretase) | α-cleavage (α-secretase) | amount of α-secretase cleavage product (α-secretase) | amount of β-secretase cleavage product (β-secretase; in words, versus wild-type APP)
Trp (position 16): human APP695 modified protein, lysine at position 16 of β-amyloid replaced with tryptophan | → | ↓↓ | sharply decreased | 
Ala (position 17): human APP695 modified protein, leucine at position 17 of β-amyloid replaced with alanine | → | ↓ | decreased | 
Glu (position 17): human APP695 modified protein, leucine at position 17 of β-amyloid replaced with glutamic acid | → | 0 | No α-secretase cleavage product was detected | 
Lys (position 17): human APP695 modified protein, leucine at position 17 of β-amyloid replaced with lysine | ↑ | ↓↓ | decreased | slightly increased
Pro (position 17): human APP695 modified protein, leucine at position 17 of β-amyloid replaced with proline | → | 0 | No α-secretase cleavage product was detected | 
